“And” between values parts separate entries of the source, which are not always exact repeats. Identical values can stand only once.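 Step 1: Grow cells in 96-well plates. Step 2: Expose to compound for 48 hours at 5 concentrations. Step 3: Interpolate endpoints linearly; if unreached, use highest concentration. The concentration for 50% growth inhibition is given as GI50. At the TGI there is no net growth.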
Tests used:
Assay in all cases: inhibition of tumour cell growth, NCI panel, 48 h
BT-549 breast = test system: BT-549 breast
HCT-116 colon = test system: HCT-116 colon
HL-60(TB) leukemia = test system: HL-60(TB) leukemia
KM12 colon = test system: KM12 colon
NCI/ADR-RES ovarian = test system: NCI/ADR-RES ovarian
OVCAR-3 ovarian = test system: OVCAR-3 ovarian
OVCAR-5 ovarian = test system: OVCAR-5 ovarian
SK-OV-3 ovarian = test system: SK-OV-3 ovarian
SNB-19 CNS = test system: SNB-19 CNS
UO-31 renal = test system: UO-31 renal

CCCCCCN(CCCCCC)C(=N)c1ccnc2ccccc12
GI50 (BT-549 breast): 13.9 µM
TGI (BT-549 breast): 27.3 µM
GI50 (HCT-116 colon): 1.94 µM
TGI (HCT-116 colon): 14.1 µM
GI50 (HL-60(TB) leukemia): 2.93 µM
TGI (HL-60(TB) leukemia): 16.8 µM
GI50 (KM12 colon): 3.95 µM
TGI (KM12 colon): 15.2 µM
GI50 (NCI/ADR-RES ovarian): 5.84 µM
TGI (NCI/ADR-RES ovarian): 21.1 µM
GI50 (OVCAR-3 ovarian): 10.3 µM
TGI (OVCAR-3 ovarian): 22.4 µM
GI50 (OVCAR-5 ovarian): 9.64 µM
TGI (OVCAR-5 ovarian): 21.7 µM
GI50 (SK-OV-3 ovarian): 12.3 µM
TGI (SK-OV-3 ovarian): 24.7 µM
GI50 (SNB-19 CNS): 11 µM
TGI (SNB-19 CNS): 25.7 µM
GI50 (UO-31 renal): 0.708 µM
TGI (UO-31 renal): 13 µM

C=C(C)C(=O)NC(N)=NC#N
GI50 (BT-549 breast): 67.9 µM
TGI (BT-549 breast): 28.4 µM and 192 µM
GI50 (HCT-116 colon): 131 µM
TGI (HCT-116 colon): 257 µM
TGI (HL-60(TB) leukemia): 42.6 µM and 50.3 µM
GI50 (KM12 colon): 147 µM
TGI (KM12 colon): 286 µM
GI50 (NCI/ADR-RES ovarian): 125 µM
TGI (NCI/ADR-RES ovarian): > 83.8 µM and 267 µM
GI50 (OVCAR-3 ovarian): 129 µM
TGI (OVCAR-3 ovarian): 259 µM
TGI (OVCAR-5 ovarian): 304 µM
TGI (SK-OV-3 ovarian): 308 µM
TGI (SNB-19 CNS): 330 µM
GI50 (UO-31 renal): 134 µM
TGI (UO-31 renal): > 92.1 µM and 265 µM

CCOC(=O)[C@H](CSSc1ncnc2cc[nH]c12)NC(=O)[C@@H](C)c1ccc2cc(OC)ccc2c1
GI50 (BT-549 breast): 0.916 µM
TGI (BT-549 breast): > 100 µM
GI50 (HCT-116 colon): 0.474 µM
TGI (HCT-116 colon): > 100 µM
GI50 (HL-60(TB) leukemia): 1.04 µM
TGI (HL-60(TB) leukemia): > 100 µM
GI50 (KM12 colon): 1.61 µM
TGI (KM12 colon): > 100 µM
GI50 (NCI/ADR-RES ovarian): 0.687 µM
TGI (NCI/ADR-RES ovarian): > 100 µM
GI50 (OVCAR-3 ovarian): 0.125 µM
TGI (OVCAR-3 ovarian): > 100 µM
GI50 (OVCAR-5 ovarian): 0.929 µM
TGI (OVCAR-5 ovarian): > 100 µM
GI50 (SK-OV-3 ovarian): 2.77 µM
TGI (SK-OV-3 ovarian): > 100 µM
GI50 (SNB-19 CNS): 44.4 µM
TGI (SNB-19 CNS): > 100 µM
GI50 (UO-31 renal): 0.736 µM
TGI (UO-31 renal): > 100 µM

O=S(=O)(/C=C/C=C/S(=O)(=O)c1ccccc1)c1ccccc1
TGI (BT-549 breast): 3.15 µM
GI50 (HCT-116 colon): 0.606 µM
TGI (HCT-116 colon): 2.8 µM and 1.95 µM
GI50 (HL-60(TB) leukemia): 0.188 µM
TGI (HL-60(TB) leukemia): 2.04 µM and 0.518 µM
GI50 (KM12 colon): 11.1 µM
TGI (KM12 colon): 4.25 µM and 23.5 µM
GI50 (NCI/ADR-RES ovarian): 2.16 µM
TGI (NCI/ADR-RES ovarian): 3.89 µM and 4.68 µM
GI50 (OVCAR-3 ovarian): 1.46 µM
TGI (OVCAR-3 ovarian): 1.82 µM and 2.9 µM
GI50 (OVCAR-5 ovarian): 1.9 µM
TGI (OVCAR-5 ovarian): 5.28 µM
TGI (SK-OV-3 ovarian): 19.9 µM
TGI (SNB-19 CNS): 31.2 µM
TGI (UO-31 renal): 2.92 µM and 3.32 µM

CC(C)(Cl)CCC1=C(Cl)C(=O)c2ccccc2C1=O
GI50 (BT-549 breast): 2.35 µM
TGI (BT-549 breast): 8.78 µM
GI50 (HCT-116 colon): 1.59 µM
TGI (HCT-116 colon): 3.19 µM
GI50 (HL-60(TB) leukemia): 1.33 µM
TGI (HL-60(TB) leukemia): 3.84 µM
GI50 (KM12 colon): 2.28 µM
TGI (KM12 colon): 5.32 µM
GI50 (NCI/ADR-RES ovarian): 3.29 µM
TGI (NCI/ADR-RES ovarian): 19.5 µM
GI50 (OVCAR-3 ovarian): 1.72 µM
TGI (OVCAR-3 ovarian): 3.17 µM
GI50 (OVCAR-5 ovarian): 2.25 µM
TGI (OVCAR-5 ovarian): 5.6 µM
GI50 (SK-OV-3 ovarian): 5.48 µM
TGI (SK-OV-3 ovarian): 17.6 µM
GI50 (SNB-19 CNS): 4.22 µM
TGI (SNB-19 CNS): 17.1 µM
GI50 (UO-31 renal): 1.59 µM
TGI (UO-31 renal): 3.15 µM

CN(C)CC/C=C1\c2ccccc2Sc2ccc(Cl)cc21
GI50 (BT-549 breast): 4.91 µM
TGI (BT-549 breast): 17.4 µM and 29.2 µM
GI50 (HCT-116 colon): 2.4 µM
TGI (HCT-116 colon): 6.13 µM and 24.4 µM
GI50 (HL-60(TB) leukemia): 4.46 µM
TGI (HL-60(TB) leukemia): 13.7 µM and 27.7 µM
GI50 (KM12 colon): 2.54 µM
TGI (KM12 colon): 6.08 µM and 37.9 µM
GI50 (NCI/ADR-RES ovarian): 2.42 µM
TGI (NCI/ADR-RES ovarian): 8.24 µM and 30.8 µM
GI50 (OVCAR-3 ovarian): 3.99 µM
TGI (OVCAR-3 ovarian): 13.5 µM and 26.8 µM
GI50 (OVCAR-5 ovarian): 4.61 µM
TGI (OVCAR-5 ovarian): 17.9 µM and 27.8 µM
GI50 (SK-OV-3 ovarian): 1.99 µM
TGI (SK-OV-3 ovarian): 5 µM and 30.7 µM
GI50 (SNB-19 CNS): 2.62 µM
TGI (SNB-19 CNS): 10.6 µM and 29.9 µM
GI50 (UO-31 renal): 2.96 µM
TGI (UO-31 renal): 15.6 µM and 21.5 µM

CON(C)C(=O)C(Cc1ccccc1)NC(=O)OC(C)(C)C (configuration not stated)
TGI (BT-549 breast): > 100 µM
TGI (HCT-116 colon): > 100 µM
TGI (HL-60(TB) leukemia): > 100 µM
TGI (KM12 colon): > 100 µM
TGI (NCI/ADR-RES ovarian): > 100 µM
TGI (OVCAR-3 ovarian): > 100 µM
TGI (OVCAR-5 ovarian): > 100 µM
TGI (SK-OV-3 ovarian): > 100 µM
TGI (SNB-19 CNS): > 100 µM
TGI (UO-31 renal): > 100 µM

Reference: PubChem BioAssay (NCI)
